Laboratory results as given in ChEMBL document CHEMBL1201862, “PubChem BioAssay data set” (2004).
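48-hour exposure; five concentrations; linearly interpolated endpoints. At the GI50, growth is halved.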 Activity calls are given as the source filed them. Rule as the data show it: active = GI50 up to about 1.1 µM and inactive = higher.

What was measured:
Assay in all cases: DTP human tumour cell line panel, 48 h
NCI-H23 = test system: NCI-H23
K562 = test system: K562
TK-10 = test system: TK-10
SR = test system: SR
A498 = test system: A498
NCI-H522 = test system: NCI-H522
HCC 2998 = test system: HCC 2998
RXF 393 = test system: RXF 393
SK-MEL-2 = test system: SK-MEL-2
HOP-62 = test system: HOP-62
KM12 = test system: KM12
HT-29 = test system: HT-29
SN12C = test system: SN12C
UACC-257 = test system: UACC-257
HOP-92 = test system: HOP-92
HL-60 = test system: HL-60
RPMI-8226 = test system: RPMI-8226
U-251 = test system: U-251
A549 = test system: A549
CAKI-1 = test system: CAKI-1

Measured: GI50

O=C(Nc1ccc([N+](=O)[O-])cc1)C(=O)C(C(=O)c1ccccc1F)C1OC(=O)c2ccccc21 (stereo not given)
inactive: NCI-H23 81.1 µM | K562 25.3 µM | TK-10 > 100 µM | SR 21.9 µM | A498 80.9 µM | NCI-H522 14.7 µM | HCC 2998 21 µM | RXF 393 50.9 µM | SK-MEL-2 23.7 µM | HOP-62 58.1 µM | KM12 42.4 µM | HT-29 51.9 µM | SN12C 30.8 µM | UACC-257 86.5 µM | HOP-92 > 100 µM | HL-60 22.2 µM | RPMI-8226 18.2 µM | U-251 17.7 µM | A549 67.6 µM | CAKI-1 59.4 µM
